Experiments:
[1] = biological target: T1, BRM (Homo sapiens, UniProt P51531); test: ATPase catalytic activity of BRM, ADP-Glo in vitro biochemical assay; details: for IC50: ADP-Glo ATPase assay, 30 nM BRM, 400 μM ATP; for Ratio*: ratio BRG1 IC50 / BRM IC50
T1 construct: made in house; host or cells: High Five insect cells
In short: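 Recombinant BRM (30 nM) hydrolysed 400 μM ATP with 20 nM salmon sperm DNA in pH 8 Tris buffer containing 20 mM MgCl2, 50 mM NaCl, 0.1% Tween-20 and 1 mM DTT, 1 h at room temperature. ADP formed was quantified by ADP-Glo luminescence.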

[2] = biological target: T2, BRG-1 (Homo sapiens, UniProt P51532); test: ATPase catalytic activity of BRG-1, ADP-Glo in vitro biochemical assay; details: ADP-Glo ATPase assay, 30 nM BRG-1, 400 μM ATP; read-out: BRG1 IC50
T2 construct: made in house; host or cells: High Five insect cells
In short: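 Signal reflects ADP produced by the enzyme, quantified as luminescence after unused ATP is cleared and ADP is reconverted to ATP for the luciferase reaction; both steps run at room temperature, 40 and 60 min respectively.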

[3] = system: Uveal melanoma cell lines, 92-1 or MP41; test: 3-day growth inhibition compared with clinical PKC and MEK inhibitors, Compound A (Example 8); assay type: cell-based; details: FIG. 2A and 2B
Description: Procedure: Uveal melanoma cell lines, 92-1 or MP41, were plated in 96 well plates in the presence of growth media (see Table 5). […] Cells were incubated at 37 degrees Celsius for 3 days. After three days of treatment, cell growth was measured with Cell-titer glow (Promega), and luminescence was read on an Envision plate reader (Perkin Elmer).

[4] = system: PKC inhibitor (PKCi)-resistant MP41 uveal melanoma cells; test: 7-day growth inhibition assay, PKC inhibitor-resistant cells (Example 14); assay type: cell-based; details: FIG. 7A
Description: Procedure: MP41 uveal melanoma cells were made resistant to the PKC inhibitor (LXS196; MedChemExpress), by long-term culture in growth media (see Table 6) containing increasing concentrations of the compound, up to 1 micromolar. After 3 months, sensitivity of the parental MP41 cells and the PKC inhibitor (PKCi)-resistant cells to the PKC inhibitor (LXS196) or the BRG1/BRM ATPase inhibitor (Compound B) was tested in a 7-day growth inhibition assay as described above in Example 9.

T1 sequence (P51531 whole entry): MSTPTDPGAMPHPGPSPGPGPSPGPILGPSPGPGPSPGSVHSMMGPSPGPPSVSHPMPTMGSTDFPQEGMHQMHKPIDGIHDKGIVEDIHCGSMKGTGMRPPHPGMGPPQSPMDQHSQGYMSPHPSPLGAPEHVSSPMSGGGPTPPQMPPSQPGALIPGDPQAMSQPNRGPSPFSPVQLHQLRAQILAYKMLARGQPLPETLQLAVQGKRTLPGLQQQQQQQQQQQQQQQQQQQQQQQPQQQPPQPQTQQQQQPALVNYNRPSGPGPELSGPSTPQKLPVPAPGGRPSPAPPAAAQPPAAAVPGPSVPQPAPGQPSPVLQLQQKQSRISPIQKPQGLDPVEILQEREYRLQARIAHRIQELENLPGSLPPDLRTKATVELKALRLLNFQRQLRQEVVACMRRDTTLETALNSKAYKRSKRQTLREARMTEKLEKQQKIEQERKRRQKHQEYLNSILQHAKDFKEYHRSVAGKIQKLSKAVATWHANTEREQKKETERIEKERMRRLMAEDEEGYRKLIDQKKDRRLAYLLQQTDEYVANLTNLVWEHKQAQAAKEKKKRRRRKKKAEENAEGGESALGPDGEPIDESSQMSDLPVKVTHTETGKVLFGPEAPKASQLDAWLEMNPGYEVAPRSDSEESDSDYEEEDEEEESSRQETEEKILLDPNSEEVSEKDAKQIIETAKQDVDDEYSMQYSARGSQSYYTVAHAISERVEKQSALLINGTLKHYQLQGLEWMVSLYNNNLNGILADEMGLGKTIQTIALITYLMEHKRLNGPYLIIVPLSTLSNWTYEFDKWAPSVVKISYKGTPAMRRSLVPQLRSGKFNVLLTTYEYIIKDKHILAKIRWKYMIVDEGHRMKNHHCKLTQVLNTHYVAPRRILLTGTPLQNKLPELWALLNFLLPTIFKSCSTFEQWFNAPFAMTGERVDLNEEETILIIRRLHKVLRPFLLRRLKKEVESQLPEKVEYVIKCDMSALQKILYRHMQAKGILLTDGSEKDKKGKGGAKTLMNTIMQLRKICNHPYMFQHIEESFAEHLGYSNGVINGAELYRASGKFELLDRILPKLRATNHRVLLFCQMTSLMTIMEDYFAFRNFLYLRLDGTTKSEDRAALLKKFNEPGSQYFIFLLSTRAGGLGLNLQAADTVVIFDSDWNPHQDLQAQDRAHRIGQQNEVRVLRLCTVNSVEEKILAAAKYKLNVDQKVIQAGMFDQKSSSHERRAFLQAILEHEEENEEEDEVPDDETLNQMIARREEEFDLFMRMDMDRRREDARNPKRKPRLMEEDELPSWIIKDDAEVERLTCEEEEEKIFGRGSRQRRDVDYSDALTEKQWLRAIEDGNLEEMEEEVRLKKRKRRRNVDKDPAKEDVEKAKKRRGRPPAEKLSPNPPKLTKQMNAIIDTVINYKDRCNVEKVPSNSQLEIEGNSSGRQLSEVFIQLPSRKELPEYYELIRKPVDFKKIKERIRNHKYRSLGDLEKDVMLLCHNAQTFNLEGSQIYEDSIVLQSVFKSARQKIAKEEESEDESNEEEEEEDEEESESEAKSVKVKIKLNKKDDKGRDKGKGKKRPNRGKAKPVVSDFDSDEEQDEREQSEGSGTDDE
T2 sequence (P51532 whole entry): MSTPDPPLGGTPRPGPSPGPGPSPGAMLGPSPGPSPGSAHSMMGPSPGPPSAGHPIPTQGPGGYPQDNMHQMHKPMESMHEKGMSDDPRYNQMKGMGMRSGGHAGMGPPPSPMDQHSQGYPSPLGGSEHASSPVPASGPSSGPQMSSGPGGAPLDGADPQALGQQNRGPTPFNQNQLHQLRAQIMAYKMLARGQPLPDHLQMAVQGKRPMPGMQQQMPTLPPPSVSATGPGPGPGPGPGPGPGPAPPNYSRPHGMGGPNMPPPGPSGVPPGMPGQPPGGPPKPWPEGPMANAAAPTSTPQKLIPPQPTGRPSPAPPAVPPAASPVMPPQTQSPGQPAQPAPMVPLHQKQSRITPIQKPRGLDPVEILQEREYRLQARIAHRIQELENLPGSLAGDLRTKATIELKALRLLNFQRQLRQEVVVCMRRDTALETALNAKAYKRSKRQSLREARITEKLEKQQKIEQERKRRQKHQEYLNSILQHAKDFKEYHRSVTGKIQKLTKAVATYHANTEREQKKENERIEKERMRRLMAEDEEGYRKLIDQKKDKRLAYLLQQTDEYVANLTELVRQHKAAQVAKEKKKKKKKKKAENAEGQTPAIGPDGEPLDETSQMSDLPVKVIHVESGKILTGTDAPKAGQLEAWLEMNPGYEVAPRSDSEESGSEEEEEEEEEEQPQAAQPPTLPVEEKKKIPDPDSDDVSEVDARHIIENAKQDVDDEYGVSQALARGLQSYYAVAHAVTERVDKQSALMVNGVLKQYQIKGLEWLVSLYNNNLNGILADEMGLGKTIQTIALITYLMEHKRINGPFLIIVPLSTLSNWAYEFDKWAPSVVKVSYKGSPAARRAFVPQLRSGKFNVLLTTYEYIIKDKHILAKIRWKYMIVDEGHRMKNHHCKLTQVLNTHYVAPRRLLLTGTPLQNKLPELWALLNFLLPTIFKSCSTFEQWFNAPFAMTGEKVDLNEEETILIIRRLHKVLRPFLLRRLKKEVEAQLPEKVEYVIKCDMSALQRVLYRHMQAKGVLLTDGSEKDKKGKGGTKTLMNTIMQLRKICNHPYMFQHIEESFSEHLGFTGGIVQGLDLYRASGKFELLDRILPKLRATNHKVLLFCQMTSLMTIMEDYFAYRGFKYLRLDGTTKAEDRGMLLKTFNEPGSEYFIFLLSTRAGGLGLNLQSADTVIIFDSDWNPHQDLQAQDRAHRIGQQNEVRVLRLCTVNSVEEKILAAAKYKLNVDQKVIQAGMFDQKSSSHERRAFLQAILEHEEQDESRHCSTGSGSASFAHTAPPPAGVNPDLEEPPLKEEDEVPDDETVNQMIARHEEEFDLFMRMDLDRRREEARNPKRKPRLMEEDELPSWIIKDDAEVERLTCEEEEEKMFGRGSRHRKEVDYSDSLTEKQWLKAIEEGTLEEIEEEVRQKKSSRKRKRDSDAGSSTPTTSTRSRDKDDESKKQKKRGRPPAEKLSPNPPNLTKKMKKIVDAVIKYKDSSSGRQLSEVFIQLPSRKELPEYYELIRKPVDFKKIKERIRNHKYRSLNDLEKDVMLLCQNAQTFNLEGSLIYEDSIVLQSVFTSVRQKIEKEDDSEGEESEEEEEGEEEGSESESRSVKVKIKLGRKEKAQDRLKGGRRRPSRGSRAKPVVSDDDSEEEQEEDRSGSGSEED

SMILES | IC50 [1] [nM] | Ratio* [1] | IC50 [2] [nM] | onset of inhibition versus the clinical PKC and MEK inhibitors [3] | growth inhibition of uveal melanoma cells versus the clinical PKC and MEK inhibitors ([3]; 3 days, 0 to 10 micromolar) | tolerance of PKCi-resistant cells versus the parental MP41 cell line [4]
O=C(NCc1cc2nc(N3CCOc4c3cnc(C3CC3)c4F)ccc2cn1)c1ccc2c(c1)S(=O)(=O)CCOC2 [Compound 813] | 38.1 | 12.52 | 477 | – | – | –
O=C(NCc1cc2nc(N3CCCc4c(N5CCC5)ccnc43)ccc2cn1)c1ccc2c(c1)S(=O)(=O)CCOC2 [Compound 814] | 21.4 | 10.40 | 222 | – | – | –
O=C(NCc1cc2nc(-c3ccccc3OCC3CC3)ccc2cn1)c1ccc2c(c1)S(=O)(=O)CCOC2 [Compound 815] | 193 | 7.51 | 1450 | – | – | –
COCc1cc(C)c2c(n1)N(c1ccc3cnc(CNC(=O)c4ccc5c(c4)S(=O)(=O)CCOC5)cc3n1)CCC2 [Compound 816] | 42.3 | 18.04 | 764 | – | – | –
CN(c1cnc2c(c1)OCCN2c1ccc2cnc(CNC(=O)c3ccc4c(c3)S(=O)(=O)CCOC4)cc2n1)C1CC(F)(F)C1 [Compound 817] | 12.4 | 11.55 | 143 | – | – | –
[2H]C1([2H])Oc2ccc(C(=O)NCc3cc4nc(N5CCOc6ccc(C(F)F)nc65)ccc4cn3)cc2S(=O)(=O)C([2H])([2H])C1([2H])[2H] [Compound 818] | 62.4 | 26.90 | 1680 | – | – | –
CN(c1cnc2c(c1)OCCN2c1ccc2cnc(CNC(=O)c3ccc4c(c3)S(=O)(=O)CCOC4)cc2n1)C1CCC1 [Compound 819] | 6.4 | 7.26 | 46.7 | – | – | –
O=C(NCc1cc2nc(-c3cccc(OCC4CC4)c3)ccc2cn1)c1ccc2c(c1)S(=O)(=O)CCOC2 [Compound 820] | 96.1 | 14.31 | 1380 | – | – | –
COCc1cc2c(cn1)N(c1ccc3cnc(CNC(=O)c4ccc5c(c4)S(=O)(=O)CCOC5)cc3n1)CCC2 [Compound 821] | 79.7 | 12.03 | 959 | – | – | –
O=C(NCc1cc2cc(N3CCOc4cnc(C5CC5)nc43)ccc2cn1)c1ccc2c(c1)S(=O)(=O)CCOC2 [Compound 822] | 36.7 | 12.47 | 458 | – | – | –
O=C(NCc1cc2nc(N3CCCc4ccc(C(F)CF)nc43)ccc2cn1)c1ccc2c(c1)S(=O)(=O)CCOC2 (stereo not drawn) [Compound 823] | 61.3 | 17.84 | 1090 | – | – | –
Cc1ccc(-c2ccc3cnc(CNC(=O)c4ccc5c(c4)S(=O)(=O)CCOC5)cc3n2)c(=O)n1C [Compound 824] | 742 | 6.49 | 4820 | – | – | –
COc1ncc(F)c2c1CCCN2c1ccc2cnc(CNC(=O)c3ccc4c(c3)S(=O)(=O)CCOC4)cc2n1 [Compound 825] | 31.9 | 7.70 | 246 | – | – | –
O=C(NCc1cc2nc(N3CCOc4c3ncc(C3CC3)c4F)ccc2cn1)c1ccc2c(c1)S(=O)(=O)CCOC2 [Compound 827] | 13.1 | 11.63 | 153 | – | – | –
O=C(NCc1cc2nc(N3CCOc4ccc(C5CC(F)(F)C5)nc43)ccc2cn1)c1ccc2c(c1)S(=O)(=O)CCOC2 [Compound 828] | 45.1 | 52.48 | 2370 | – | – | –
C[C@H]1C[C@H]1c1ccc2c(n1)N(c1ccc3cnc(CNC(=O)c4ccc5c(c4)S(=O)(=O)CCOC5)cc3n1)CCO2 [Compound 831] | 35.2 | 33.09 | 1160 | – | – | –
CSCC[C@H](NC(=O)c1ccc(N)cc1)C(=O)Nc1nc(-c2cccc(-c3ccncc3)c2)cs1 [Compound A] | – | – | – | faster onset of inhibition | comparable growth inhibition | –
CC1(N)CCN(c2cccnc2NC(=O)c2nc(-c3ncccc3C(F)(F)F)cnc2N)CC1 [LXS196, reference compound] | – | – | – | – | – | could tolerate growth at higher concentrations

Continued, in another order:

IC50 [1] [nM] | Ratio* [1] | IC50 [2] [nM] | SMILES | onset of inhibition versus the clinical PKC and MEK inhibitors [3] | growth inhibition of uveal melanoma cells versus the clinical PKC and MEK inhibitors ([3]; 3 days, 0 to 10 micromolar) | tolerance of PKCi-resistant cells versus the parental MP41 cell line [4]
15.5 | 58.26 | 906 | C[C@@H]1C[C@@H]1c1ccc2c(n1)N(c1ccc3cnc(CNC(=O)c4ccc5c(c4)S(=O)(=O)CCOC5)cc3n1)CCO2 [Compound 832] | – | – | –
20.2 | 14.40 | 291 | O=C(NCc1cc2nc(N3CCOc4cc(N5CCC5)ncc43)ccc2cn1)c1ccc2c(c1)S(=O)(=O)CCOC2 [Compound 834] | – | – | –
17.1 | 9.15 | 156 | COCc1cc2c(nc1C(F)F)N(c1ccc3cnc(CNC(=O)c4ccc5c(c4)S(=O)(=O)CCOC5)cc3n1)CCC2 [Compound 835] | – | – | –
105 | 6.21 | 651 | CN(C)c1nccc2c1CCCN2c1ccc2cnc(CNC(=O)c3ccc4c(c3)S(=O)(=O)CCOC4)cc2n1 [Compound 836] | – | – | –
33 | 4.95 | 163 | CN(C)c1ccnc2c1CCCN2c1ccc2cnc(CNC(=O)c3ccc4c(c3)S(=O)(=O)CCOC4)cc2n1 [Compound 837] | – | – | –
27.5 | 38.76 | 1060 | O=C(NCc1cc2nc(N3CCOc4ccc(C(F)CF)nc43)ccc2cn1)c1ccc2c(c1)S(=O)(=O)CCOC2 (stereo not drawn) [Compound 838] | – | – | –
290 | 7.16 | 2080 | Cc1nc(C)c2c(n1)N(c1ccc3cnc(CNC(=O)c4ccc5c(c4)S(=O)(=O)CCOC5)cc3n1)CCC2 [Compound 841] | – | – | –
29.9 | 10.98 | 329 | O=C(NCc1cc2nc(N3CC(F)Cc4cccnc43)ccc2cn1)c1ccc2c(c1)S(=O)(=O)CCOC2 (stereo not drawn) [Compound 842] | – | – | –
56.2 | 8.61 | 484 | O=C(NCc1cc2nc(N3CCOc4nc(C5CC5)ccc43)ccc2cn1)c1ccc2c(c1)S(=O)(=O)CCOC2 [Compound 843] | – | – | –
19 | 19.99 | 380 | O=C(NCc1cc2nc(N3CCOc4cc(C5CC5)ccc43)cnc2cn1)c1ccc2c(c1)S(=O)(=O)CCOC2 [Compound 844] | – | – | –
21.2 | 8.66 | 184 | CN(C)c1ccc2c(n1)OCCN2c1ccc2cnc(CNC(=O)c3ccc4c(c3)S(=O)(=O)CCOC4)cc2n1 [Compound 845] | – | – | –
406 | 11.26 | 4570 | O=C(NCc1cc2nc(N3CCOc4nc(C(F)F)ccc43)ccc2cn1)c1ccc2c(c1)S(=O)(=O)CCOC2 [Compound 846] | – | – | –
19.4 | 19.41 | 376 | O=C(NCc1cc2nc(N3CCOc4cc(C5(C(F)F)CC5)cnc43)ccc2cn1)c1ccc2c(c1)S(=O)(=O)CCOC2 [Compound 847] | – | – | –
216 | 10.10 | 2180 | Cc1ncnc2c1CCCN2c1ccc2cnc(CNC(=O)c3ccc4c(c3)S(=O)(=O)CCOC4)cc2n1 [Compound 848] | – | – | –
664 | 6.87 | 4560 | COc1ccc(-c2ccc3cnc(CNC(=O)c4ccc5c(c4)S(=O)(=O)CCOC5)cc3n2)nc1 [Compound 850] | – | – | –
708 | 3.64 | 2570 | O=C(NCc1cc2nc(-c3ccc(OC4CC4)cn3)ccc2cn1)c1ccc2c(c1)S(=O)(=O)CCOC2 [Compound 851] | – | – | –
9.8 | 17.95 | 176 | O=C(NCc1cc2nc(N3CCCc4cnc(OC5CC5)cc43)ccc2cn1)c1ccc2c(c1)S(=O)(=O)CCOC2 [Compound 852] | – | – | –
12.6 | 16.24 | 205 | O=C(NCc1cc2nc(N3CCOc4cnc(C5CC5)c(F)c43)ccc2cn1)c1ccc2c(c1)S(=O)(=O)CCOC2 [Compound 853] | – | – | –
105 | 19.74 | 2070 | O=C(NCc1cc2nc(N3CCOc4ccc([C@@H](F)CF)nc43)ccc2cn1)c1ccc2c(c1)S(=O)(=O)CCOC2 [Compound 854] | – | – | –
395 | 9.60 | 3800 | O=C(NCc1cc2nc(N3CC4CC4c4cccnc43)ccc2cn1)c1ccc2c(c1)S(=O)(=O)CCOC2 (stereo not drawn) [Compound 855] | – | – | –
11.9 | 55.91 | 664 | O=C(NCc1cc2nc(N3CCOc4ccc([C@H](F)CF)nc43)ccc2cn1)c1ccc2c(c1)S(=O)(=O)CCOC2 [Compound 856] | – | – | –

— patent US20230416248A1, “COMPOUNDS AND USES THEREOF” (Foghorn Therapeutics Inc., priority 2020, published 2023)
